Measurements published in US20190070128A1, “USE OF CANNABIDIVARIN IN THE TREATMENT OF AUTISM SPECTRUM DISORDER, ASSOCIATED DISORDERS AND SCHIZOPHRENIA” (GW Research Limited, priority 2016, published 2019).

How the values were obtained:
Format in all cases: in vivo, mouse
MeCP2 KO mice [1] = experiment: body weight gain in MeCP2 KO and WT mice
Procedure: CBDV was administered daily at the dose of 2, 20 and 200 mg/kg i.p. starting from PND 28 and the following signs were scored every other day: hindlimb clasping (indication of motor imbalance), tremor, gait (measure of coordination), breathing, mobility and general condition.
The CBDV was dissolved in ethanol, cremophor and saline (1:1:18).
(§1) Starting from PND 28, mice received a daily intraperitoneal injection of CBDV (or vehicle) at the dose of 2, 20 and 200 mg/kg. Animals were then scored every other day to evaluate the effect of CBDV treatment on motor symptoms (hindlimb clasping, gait, mobility) as well as neurological signs and general conditions (breathing abnormalities, tremors and general condition) present in MeCP2 knockout (KO) mice.

MeCP2 KO mice [2] = experiment: Novel Object Recognition (NOR) test in MeCP2 KO mice
Procedure: Furthermore, the efficacy of CBDV in reverting/attenuating the short- and long-term memory deficits present in these mice was evaluated. The Novel Object Recognition (NOR) test was performed before the starting of the treatment Post Natal Day 28 (PND 28), at PND 41 when the first motor symptoms appear and at PND 56 and 66 when the disease is fully manifested.
At PND 28, 41, 56 and 66 the effect of CBDV on short- and long-term memory deficits was investigated through the Novel Object Recognition (NOR) test.
The experimental apparatus used for the Novel Object Recognition test was an open-field box (43×43×32 cm) made of Plexiglas, placed in a dimly illuminated room. Animals performed each test individually.
Briefly, each animal was placed in the arena and allowed to explore two identical previously unseen objects for 10 minutes (familiarization phase). After an inter-trial interval of 30 minutes and 24 hours one of the two familiar objects was replaced by a novel, previously unseen object and mice were returned to the arena for the 10-minute test phase.
During the test phase the time spent exploring the familiar object (Ef) and the new object (En) was recorded separately by two observers blind to the groups and the discrimination index was calculated as follows: [(En−Ef)/(En+Ef)]×100.

MeCP2 KO mice [3] = experiment: symptom scoring in MeCP2 KO mice
Procedure: as §1
Each of the six symptoms was scored from 0 to 2 (0 corresponds to the symptom being absent or the same as in the wild type (WT) animal; 1 when the symptom was present; 2 when the symptom was severe).
Mobility: the mouse is observed when placed on bench, then when handled gently. 0 =as WT. 1=reduced movement when compared with WT: extended freezing period when first placed on bench and longer periods spent immobile. 2=no spontaneous movement when placed on the bench; mouse can move in response to a gentle prod or a food pellet placed nearby.
Gait: 0=as WT. 1=hind legs are spread wider than WT when walking or running with reduced pelvic elevation, resulting in a ‘waddling’ gait. 2=more severe abnormalities: tremor when feet are lifted, walks backward or ‘bunny hops’ by lifting both rear feet at once.
Hindlimb clasping: mouse observed when suspend by holding base of the tail. 0=legs splayed outward. 1=hindlimbs are drawn toward each other (without touching) or one leg is drawn into the body. 2=both legs are pulled in tightly, either touching each other or touching the body.
Tremor: mouse observed while standing on the flat palm of the hand. 0=no tremor. 1=intermittent mild tremor. 2=continuous tremor or intermittent violent tremor.
Breathing: movement of flanks observed while animal is standing still. 0=normal breathing. 1=periods of regular breathing interspersed with short periods of more rapid breathing or with pauses in breathing. 2=very irregular breathing-gasping or panting.
General condition: mouse observed for indicators of general well-being such as coat condition, eyes and body stance. 0=clean shiny coat, clear eyes, and normal stance. 1=eyes dull, coat dull/un-groomed, and somewhat hunched stance. 2=eyes crusted or narrowed, piloerection, and hunched posture.

Ube3am-/p+ (AS) mice [4] = experiment: tail suspension test in Angelman syndrome mice; settings: 20 mg/kg i.p., vs AS vehicle
Procedure: (§2) Heterozygous mice with maternal deficiency of Ube3A (Ube3am−/p+) and wild type (Ube3am+/p+) were purchased from The Jackson Laboratory (Jackson code: B6.12957-Ube3a tm1Alb/J) and maintained in a C57BL/6 background.
(§3) Drugs were dissolved in 1:1:18 ethanol:cremophor:0.9% saline, for intraperitoneal (i.p.) administration. Drug treatment was performed daily for 35 days. CBDV was administered at 20 mg/kg.
Tail suspension: The tail suspension test assesses depressive-like behaviour in mice. Mice were individually suspended by the tail on a horizontal bar (50 cm from floor) using adhesive tape placed approximately 4 cm from the tip of the tail. The duration of immobility was recorded in seconds over a period of 6 minutes by a time recorder. Immobility time was defined as the absence of escape-oriented behaviour.

Ube3am-/p+ (AS) mice [5] = experiment: rotarod test in Angelman syndrome mice; settings: chronic treatment (30 days), 20 mg/kg i.p., vs AS vehicle
Procedure: as §2, §3
Rotarod: The rotarod test assesses balance and motor coordination of mice. Mice have been measured for the time (in seconds) of equilibrium before falling on a rotary cylinder by a magnet that, activated from the fall of the mouse on the plate, allows to record the time of permanence on the cylinder. […] The animals were analysed by 2 separate tests at 1-h interval in the same day.

Question: Which results are given for C=C(C)[C@@H]1CCC(C)=C[C@H]1c1c(O)cc(CCC)cc1O [CBDV, Cannabidivarin]?
Answer: body weight (area under the curve) (MeCP2 KO mice [1]; MeCP2 KO mice): significantly rescued; reduction in body weight (MeCP2 KO mice [1]; MeCP2 KO mice, 2, 20 and 200 mg/kg i.p. daily, PND 28-66): partially prevent; body weight (area under the curve) (MeCP2 KO mice [1]; WT controls): without affecting; cognitive impairment in short-term memory (MeCP2 KO mice [2]; MeCP2 KO mice, 2, 20 and 200 mg/kg, each time point (PND 41, 56, 66), 30 minutes interval): significantly reverted; cognitive impairment in long-term memory (MeCP2 KO mice [2]; MeCP2 KO mice, all three doses, 24 hours interval): significantly counteract; recognition memory (long-term) (MeCP2 KO mice [2]; WT littermates): without affecting; recognition memory (short-term) (MeCP2 KO mice [2]; WT littermates): without affecting; mobility (MeCP2 KO mice [3]): reached statistical significance only at PND 64; breathing (MeCP2 KO mice [3]; 2 mg/kg, PND 56 to 60): significantly improve; tremors (MeCP2 KO mice [3]; 2 mg/kg, PND 63): still protective; total symptom score (MeCP2 KO mice [3]; 2 mg/kg, every time point (PND 45, 47, 49, 55, 56, 57, 58, 60 and 64)): significantly improved; general conditions (coat and eyes conditions) (MeCP2 KO mice [3]; 20 mg/kg, PND 52): significantly effective only at the earlier time point; hindlimb clasping (MeCP2 KO mice [3]; 200 mg/kg): did not significantly affect; gait (MeCP2 KO mice [3]; 200 mg/kg, PND 53 to 57): significantly improved; tremors (MeCP2 KO mice [3]; 200 mg/kg, PND 55 and 63): still able to reduce tremors; breathing (MeCP2 KO mice [3]; 200 mg/kg, PND 57 and 60): effective; total symptom score (MeCP2 KO mice [3]; 200 mg/kg, from PND 47 until PND 58): beneficial effect; general conditions (coat and eyes conditions) (MeCP2 KO mice [3]; 2 and 200 mg/kg, PND 52-64): significantly improved; tremors (MeCP2 KO mice [3]; all three doses, PND 45-49): significantly delaying and reducing; total symptom score: appearance of the phenotype (MeCP2 KO mice [3]; all three doses, vs KO-vehicle): delay and attenuate; hindlimb clasping (MeCP2 KO mice [3]; lower doses, PND 47 and 49): significantly attenuate; duration of immobility time (Ube3am-/p+ (AS) mice [4]): significantly reduced; latency to fall (Ube3am-/p+ (AS) mice [5]): reduced
